Measured values published in ChEMBL document CHEMBL6127087 (Eur J Med Chem, 2024).
Calls of active or inactive are those of the source. No cut-off for these calls is given here.

Assays:
Cytochrome P450 2D6 = Cytochrome P450 2D6 (Homo sapiens, UniProt P10635); test: Inhibition of CYP2D6 in human liver microsomes using […] as substrate preincubated for 10 mins followed by NADPH addition and measured after 10 mins by LC-MS/MS analysis; assay type: ADME, Microsome
Mus musculus = test: Anti-inflammatory activity in LPS-induced male C57BL/6 mouse model of acute […] injury assessed as reduction in IL-6 level in BALF at 2 to 6 mg/kg, IG preadministered with compound for 7 days followed by LPS administration and measured after 24 hrs by ELISA; assay type: functional, organism-based; details: dose 2-6 mg/kg, time 8.0 day
[1] = Metabolic stability in human liver microsomes assessed as intrinsic clearance preincubated for 10 mins followed by NADPH addition and measured upto 60 mins by LC-MS/MS analysis; assay type: ADME, Microsome; details: time < 70 min, read-out: CLH

Sequence of Cytochrome P450 2D6 (P10635 whole entry): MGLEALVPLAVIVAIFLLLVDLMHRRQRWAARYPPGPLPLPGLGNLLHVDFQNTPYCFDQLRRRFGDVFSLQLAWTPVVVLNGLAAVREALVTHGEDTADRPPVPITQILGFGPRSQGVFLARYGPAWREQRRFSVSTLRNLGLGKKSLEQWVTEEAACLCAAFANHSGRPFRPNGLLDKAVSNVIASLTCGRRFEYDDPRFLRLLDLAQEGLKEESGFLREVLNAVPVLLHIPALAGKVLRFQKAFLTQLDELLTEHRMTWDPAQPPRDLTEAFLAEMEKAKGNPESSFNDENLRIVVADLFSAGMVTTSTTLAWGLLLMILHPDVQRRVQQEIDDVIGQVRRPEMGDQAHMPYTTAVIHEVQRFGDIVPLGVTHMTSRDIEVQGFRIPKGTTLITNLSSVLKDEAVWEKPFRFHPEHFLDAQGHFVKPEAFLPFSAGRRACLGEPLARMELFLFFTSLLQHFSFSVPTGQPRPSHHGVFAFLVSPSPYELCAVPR

With `O=C(O)CCC(=O)N1N=C(c2ccc[nH]2)CC1c1cnc2ccccc2c1` (stereo not drawn) the IC50 (Cytochrome P450 2D6) was over 50 µM, the Activity (Mus musculus) was “Active” and the microsomal CLint [1] was 18.6 µL/min/mg.
